# According to PMC3876124, “Identification and Biochemical Characterization of Protein Phosphatase 5 from the Cantharidin-Producing Blister Beetle, Epicauta chinensis” (International Journal of Molecular Sciences, 2013):
# pIC50: −log10 of the molar value. Where two headings read alike, the source gives them in different places.
# Target: T1, Protein phosphatase 5 (EcPP5, rEcPP5) (Epicauta chinensis, UniProt W0FW71)
# T1 construct: recombinant full ORF (499 aa), N-terminal His6 tag, E. coli expressed
# T1 sequence (W0FW71 1-499): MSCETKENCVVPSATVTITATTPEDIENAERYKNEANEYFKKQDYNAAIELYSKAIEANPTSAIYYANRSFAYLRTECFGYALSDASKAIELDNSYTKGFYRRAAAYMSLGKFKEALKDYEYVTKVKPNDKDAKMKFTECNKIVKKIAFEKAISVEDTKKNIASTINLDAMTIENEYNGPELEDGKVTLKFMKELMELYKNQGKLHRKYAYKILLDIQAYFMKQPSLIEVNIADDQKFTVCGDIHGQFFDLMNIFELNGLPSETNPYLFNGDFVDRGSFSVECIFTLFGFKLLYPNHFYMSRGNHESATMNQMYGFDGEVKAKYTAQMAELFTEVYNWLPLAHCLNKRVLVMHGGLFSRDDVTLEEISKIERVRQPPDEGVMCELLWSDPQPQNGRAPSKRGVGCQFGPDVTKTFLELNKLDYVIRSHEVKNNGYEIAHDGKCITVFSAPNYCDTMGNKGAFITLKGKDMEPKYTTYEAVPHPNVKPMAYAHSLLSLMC
# Assay: pNPP phosphatase assay, dose-response, purified enzyme
# Format: biochemical
Structure (SMILES),pIC50,pIC50 (read-out: IC50)
C[C@@]12C(=O)OC(=O)[C@]1(C)[C@H]1CC[C@@H]2O1 [cantharidin],5.50,–
O=C(O)[C@@H]1[C@H](C(=O)O)[C@H]2CC[C@@H]1O2 [endothall],4.55,–
O=C1OC(=O)[C@H]2[C@@H]1[C@@H]1CC[C@H]2O1 [norcantharidin],–,4.59
C=C1[C@@H](O)[C@@H]2O[C@]3(CC[C@H](/C=C/[C@@H](C)[C@@H]4CC(C)=C[C@@]5(O[C@H](C[C@@](C)(O)C(=O)O)CC[C@H]5O)O4)O3)CC[C@H]2O[C@@H]1[C@@H](O)C[C@H](C)[C@H]1O[C@@]2(CCCCO2)CC[C@H]1C [okadaic acid],6.72,–
